Values after ≈ are worked out from the molar mass of the structure shown. Like-named read-outs stand apart in the source and are kept apart here.
Legend:
[1] = tested on: HCV replicon subgenomic 1b Strain N; test: HCV replicon SEAP reporter assay, subgenomic 1b Strain N; format: cell-based, hepatitis C virus; conditions: 4 days
Method: (§1) HCV replicon—SEAP (secreted alkaline phosphatase) cell lines have been described previously. Low passage cell stocks of cell lines stored frozen (−160° C.) were used in the assays. Serial dilutions of test compounds were made from initial stocks and each concentration plated in 96-well plates. Low passage HCV replicon-bearing cells were then trypsinized, counted and seeded into the wells. The plates were incubated at 37° C. in a CO2 incubator for 4 days. The culture supernatant was then removed from each well and heat inactivated for 30 min at 65° C. SEAP activity was measured and EC50 values calculated by comparing SEAP present in drug-treated and untreated wells. Cytotoxicity produced by compounds during screening was evaluated by MTT assay at the end of the incubation period.
(§2) Growth medium from each well was aspirated prior to the addition of lysis solution followed by vigorous pipetting. Each lysate was processed using DNase I treatment. Total RNA was eluted into orgainic carbon-free water and converted into cDNA enzymatically.

[2] = tested on: HCV replicon subgenomic 1a; test: HCV replicon SEAP reporter assay, subgenomic 1a; format: cell-based, hepatitis C virus; conditions: 4 days
Method: as §1, §2

[3] = tested on: HCV replicon-bearing cells (subgenomic 1b Strain N); test: MTT cytotoxicity in HCV replicon cells, subgenomic 1b Strain N; format: cell-based, human; conditions: 4 days
Method: as §1

[4] = tested on: HCV replicon-bearing cells (subgenomic 1a); test: MTT cytotoxicity in HCV replicon cells, subgenomic 1a; format: cell-based, human; conditions: 4 days
Method: as §1

tumor cell lines = conditions: cited from earlier work
KB = conditions: cited from earlier work
[5] = tested on: P388 lymphocytic leukemia; conditions: cited from earlier work
isolated rat hepatocytes = conditions: ex vivo isolated rat hepatocytes; cited from earlier work
proprotein convertase-1 = conditions: cited from earlier work
proprotein convertase-7 = conditions: cited from earlier work
funin = funin (Homo sapiens, UniProt P09958); conditions: cited from earlier work
in vitro = conditions: woodchuck
Description: (§3) Woodchuck primary hepatocyte cultures and hepatic cell lines were inoculated with a cytopathogenic isolate of BVDV.

[6] = tested on: cytopathogenic isolate of BVDV; test: BVDV viral yield assay in woodchuck primary hepatocytes
Description: as §3

[7] = tested on: cytopathogenic isolate of BVDV; test: BVDV antiviral assay in woodchuck hepatic cell line WCH-8
Description: as §3

HIV-1 (IIIB) = conditions: Chang et al. 1991; cited from earlier work
cpBVDV isolate NADL = test: BVDV antiviral assay in NCL bovine uterine cell line (viral-induced cell killing, viral yield); conditions: Example 2B
Method: Derivatives of andrographolide were tested in an in vitro assay which measures the antiviral potential against a cytopathogenic isolate of BVDV in a permissive bovine uterine cell line.
The capacity to measure the effectiveness of compounds to reduce BVDV replication in vitro provides a system for preclinical assessment of potential drugs for treatment of viral infection and for analyzing possible mechanisms of action.
Cell lines were incubated in a humid atmosphere of 5% CO2 at 37° C. Cells were passaged by dissociation of the monolayer with a solution of trypsin-EDTA (Life Technologies), diluted in culture medium, and split 1:5 to new culture flasks.
A method to measure visible cell numbers involved staining with methylene blue (Sigma, St. Louis, Mo.) and reading the absorbance of the stain in solution after elution from the cells. […] The methylene blue staining solution was removed from the cultures and the culture plates were rinsed in several volumes of H^2O. The culture plates were allowed to air dry; this was followed by elution of the methylene blue stain from the fixed cells by incubation at controlled room temperature in a solution of PBS/50% ethanol and 1% acetic acid for 1 hour, with agitation. The absorbance of the methylene blue dye in solution was measured by an ELISA plate reader (Model EL311; Bio-Tek Instruments, Inc., Winooski, Vt.) at 630 nm. In all experiments described, calculation of cell numbers for each experimental data point was expressed as the average of three wells per experimental treatment (dilution, titer, or antiviral concentration).
The NCL cell line was grown to confluence and passaged to 96 well microtiter plates (Microtest™ 96; Becton Dickinson Labware, Franklin Lakes, N.J.), at a density of 2×10^4 cells/well (0.34 cm^2) and incubated for 1 hour to allow cell attachment. After attachment, the cells of one-half of each microtiter plate were inoculated with a cpBVDV stock diluted to yield a multiplicity of infection (m.o.i.) of 0.01 TCID50 and incubated for 3-6 hours to allow viral attachment and penetration. Following this incubation period, the inoculum was removed and replaced with fresh growth medium.
Three quarters of both cpBVDV infected and uninfected cells were grown in the presence of antiviral compound. The remaining quarter of the microassay plate served as positive (cpVDV infected) and negative (uninfected) control wells. The medium was changed daily and cell killing was measured by the methylene blue assay 3 days post-infection with BVDV.
The culture medium was collected on day 3 post-infection and the reduction in viral yield after antiviral treatment was determined. Supernatant collected from experimental wells was serially diluted ten-fold and used to infect newly prepared NCL cells. the end-point titer, the last dilution at which complete cell killing was evident, was determined in a similar 96 well format using the methylene blue assay for cell killing 5 days after infection.
Cell killing due either to viral infection or to drug cytotoxicity was calculated for each experimental data point and plotted. Regression analysis (curve fitting) was performed with SigmaPlot4.0 (Jandel Sci, San Rafael, Calif.) using the Regression Wizard library of equations which best fit the collected data.

uninfected NCL cells = test: Cytotoxicity toward uninfected NCL cells (methylene blue assay); format: cell-based, bovine; conditions: Example 2B
Method: A method to measure visible cell numbers involved staining with methylene blue (Sigma, St. Louis, Mo.) and reading the absorbance of the stain in solution after elution from the cells. […] The methylene blue staining solution was removed from the cultures and the culture plates were rinsed in several volumes of H^2O. […] The absorbance of the methylene blue dye in solution was measured by an ELISA plate reader (Model EL311; Bio-Tek Instruments, Inc., Winooski, Vt.) at 630 nm. In all experiments described, calculation of cell numbers for each experimental data point was expressed as the average of three wells per experimental treatment (dilution, titer, or antiviral concentration).
Three quarters of both cpBVDV infected and uninfected cells were grown in the presence of antiviral compound. […] The medium was changed daily and cell killing was measured by the methylene blue assay 3 days post-infection with BVDV.
Cell killing due either to viral infection or to drug cytotoxicity was calculated for each experimental data point and plotted. […]

WCH-8 cells = test: Cytotoxicity in WCH-8 cells
Description: as §3

[8] = tested on: woodchuck primary hepatocytes; test: Cytotoxicity in woodchuck primary hepatocytes
Description: as §3

Sequence of funin (P09958 108-794): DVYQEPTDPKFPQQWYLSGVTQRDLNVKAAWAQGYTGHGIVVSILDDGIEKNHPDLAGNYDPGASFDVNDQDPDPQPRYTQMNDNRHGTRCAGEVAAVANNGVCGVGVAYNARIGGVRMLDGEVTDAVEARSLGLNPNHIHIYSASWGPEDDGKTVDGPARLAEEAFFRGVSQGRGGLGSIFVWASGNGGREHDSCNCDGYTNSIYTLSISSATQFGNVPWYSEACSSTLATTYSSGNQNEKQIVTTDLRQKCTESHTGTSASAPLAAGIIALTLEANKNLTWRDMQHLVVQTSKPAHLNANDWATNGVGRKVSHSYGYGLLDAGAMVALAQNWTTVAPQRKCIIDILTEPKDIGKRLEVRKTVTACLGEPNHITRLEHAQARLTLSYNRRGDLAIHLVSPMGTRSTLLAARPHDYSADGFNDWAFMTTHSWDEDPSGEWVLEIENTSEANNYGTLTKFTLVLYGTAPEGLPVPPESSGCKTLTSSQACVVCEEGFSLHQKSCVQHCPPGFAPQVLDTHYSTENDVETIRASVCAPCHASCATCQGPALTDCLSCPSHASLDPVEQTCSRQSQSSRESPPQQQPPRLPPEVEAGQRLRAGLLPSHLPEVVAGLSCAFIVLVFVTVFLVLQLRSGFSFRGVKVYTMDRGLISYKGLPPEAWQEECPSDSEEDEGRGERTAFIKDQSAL

For `C[C@@]1(O)[C@H](O)[C@@H](CO)O[C@H]1n1ccc(N)nc1=O` [2′-MeC, B-D-2′-methyl-cytidine], the EC50 [1] was 25.1 µM, the EC50 [2] was 61.6 µM and the IC50 [3] was > 100 µM. The IC50 [4] was > 100 µM.
In the case of `C=C1CCC2[C@](C)(CC[C@@H](O)[C@@]2(C)CO)C1/C=C/C1=CCOC1=O` (some centres unmarked) [14-deoxy-11,12-didehydroandrographolide], the cytotoxic activity (tumor cell lines) is listed as “no cytotoxic activity”.
In the case of `C=C1CC[C@@H]2[C@](C)(CO)[C@H](O)CC[C@@]2(C)[C@@H]1C/C=C1/C(=O)OC[C@H]1O` [Andrographolide], the cytotoxic activity (KB) is listed as “significant cytotoxic activity”, the cytotoxic activity [5] is listed as “significant cytotoxic activity” and the “protective activity against paracetamol-induced toxicity” value (isolated rat hepatocytes) is listed as “protective activity”. For the same compound, the enzyme inhibition (proprotein convertase-1) was “relatively little enzyme inhibition”, the enzyme inhibition (proprotein convertase-7) was “relatively little enzyme inhibition” and the enzyme inhibition (funin) was “relatively little enzyme inhibition”.
In the case of `C=C1CC[C@@H]2[C@](C)(CO[C@@H]3O[C@H](CO)[C@@H](O)[C@H](O)[C@H]3O)CCC[C@@]2(C)[C@@H]1CCC1=CCOC1=O` [neoandrographolide], the cytotoxic activity (tumor cell lines; tumor cell lines) is given as “no cytotoxic activity”.
Compound `NC(=O)c1ncn([C@@H]2O[C@H](CO)[C@@H](O)[C@H]2O)n1` [ribavirin, reference compound] has a CC50 (in vitro) of 0.35 µg/mL (≈ 1.43 µM), a tEC90 [6] of 2.9 µg/mL and an EC50 ([7]; Bovine viral diarrhea virus isolates and strains, in Marmota monax, read-out: ckEC50) of 0.27 µg/mL (≈ 1.11 µM).
In the case of “dehydroandrographolide succinic acid monoester [DASM]”, the “minimal concentration inhibitory to HIV-1 (IIIB)” value (HIV-1 (IIIB)) is listed as 1.6 to 3.1 pg/mL.
For interferon-α, the “concentration range of reduction in viral-induced cell killing” value (cpBVDV isolate NADL) was 0.1 to 1000 ng/mL, the “maximal reduction in viral-induced cell killing” value (cpBVDV isolate NADL) was 80% and the “reduction in viral yields” value (cpBVDV isolate NADL) was 2 logs. The “S.I. (CC50/EC90)” value (cpBVDV isolate NADL; bovine uterine cell line) was 6667, the ckEC50 (cpBVDV isolate NADL; bovine uterine cell line) was 0.0074 ng/mL and the tEC90 (cpBVDV isolate NADL; bovine uterine cell line) was 0.15 ng/mL. For the same compound, the tEC90 (cpBVDV isolate NADL; bovine uterine cell line, listed as IFN-α) was 150 ng/mL, the CC50 (uninfected NCL cells; bovine uterine cell line) was “≧1000 ng/ml” and the “cytotoxicity, result in words” value (uninfected NCL cells; over the range tested) was “did not exhibit cytotoxicity over the range tested”. For the same compound, the CC50 (WCH-8 cells) was “≧1000 ng/ml”, the “cytotoxicity, result in words” value (WCH-8 cells; up to a dose of 1000 ng/ml) was “No cytotoxicity was observed” and the CC50 [8] was “≧1000 ng/ml”. The “cytotoxicity, result in words” value ([8]; over the range tested) was “no cytotoxicity was observed over the range tested”, the tEC90 [6] was 0.825 µg/mL and the ckEC50 ([7]; WCH-8 cells) was 288 ng/mL. The tEC90 ([7]; WCH-8 cells) was 64 ng/mL.

Source: patent publication US8445533B2, “Andrographolide derivatives to treat viral infections” (Cornell Research Foundation, Inc., priority 2004, dated 2013)
